Test results published in patent publication US12122776B2, “Tetracyclic compounds and uses thereof” (Gilead Sciences, Inc., priority 2020, dated 2024).
Where two headings read alike, the source gives them in different places.

Tests used:
Format in all cases: cell-based
[1] = Cytotoxicity assay in MT-4 cells; conditions: human; uninfected MT-4 cells, 5 days incubation, Cell Titer Glo
Protocol: Cytotoxicity Assay in MT-4 Cells Assays were performed as above except uninfected MT-4 cells were added to each well containing test compound. In addition, 10 μM puromycin was added to the last column of each assay plate to assess a base level of cytotoxicity.

HIV-1 (IIIB) = test: Antiviral assay in MT-4 cells; conditions: Human immunodeficiency virus 1, MT4, 120 h; replication of HIV-1 (IIIB) in MT-4 cells, 5 days incubation, Cell Titer Glo
Protocol: Example 24: HIV MT-4 Antiviral and Cytotoxicity Assay
Antiviral Assay in MT-4 Cells
Compounds were tested in a high-throughput 384-well assay format for their ability to inhibit the replication of HIV-1 (IIIB) in MT-4 cells. Compounds were serially diluted (1:3) in DMSO on 384-well polypropylene plates and further diluted 200-fold into complete RPMI media (10% FBS, 1% P/S) using the Biotek Micro Flow and Labcyte ECHO acoustic dispenser. Each plate contained up to 8 test compounds, with negative (No Drug Control) and 5 μM AZT positive controls. MT-4 cells were pre-infected with 10 μL of either RPMI (mock-infected) or a fresh 1:250 dilution of HIV-1 IIIB concentrated virus stock. Infected and uninfected MT-4 cells were further diluted in complete RPMI media and added to each plate using a Micro Flow dispenser. After 5 days incubation in a humidified and temperature controlled incubator (37° C.), Cell Titer Glo (Promega) was added to the assay plates and chemiluminescence read using an Envision plate-reader. EC50 values were defined as the compound concentration that causes a 50% decrease in luminescence signal, and were calculated using a sigmoidal dose-response model to generate curve fits.

pLai RLuc reporter virus = test: HIV MT-4 serum shift antiviral reporter assay; conditions: Human immunodeficiency virus 1, MT4, 72 h
Protocol: Example 25: HIV MT-4 Serum Shift Antiviral Reporter Assay
To quantify the amount of protein binding to human serum, compounds were serially diluted (1:3) in DMSO and acoustically transferred onto 384-well assay plates via a Labcyte ECHO robot. Each plate contained up to 8 test compounds, including negative and positive controls, (DMSO, 5 μM AZT respectively). Assay plates were prepared in duplicate, and tested in either CCM (cell culture media) or HS/CCM (human serum/cell culture media). MT-4 cells were first pre-infected with pLai RLuc reporter virus for 2 h at 37° C., then further diluted in either CCM (RPMI media, 10% FBS, 1% P/S) or HS/CCM (RPMI media, 10% FBS, 50% HS, 1% P/S), and subsequently added to each plate using a Biotek Micro Flow dispenser. After a 72-h incubation in a humidified and temperature controlled incubator (37° C.), Renilla Glo (Promega) was added to all assay plates and chemiluminescence read using an Envision plate-reader. EC50 values were defined as the compound concentration that causes a 50% decrease in luminescence signal, and were calculated using a sigmoidal dose-response model to generate curve fits. To determine the amount of protein binding, EC50 fold shifts (or EC50 shifts) were calculated by dividing EC50 (HS/CCM)/EC50 (CCM).

[2] = read-out: Antiviral Serum Shift RLuc 50% HS
[3] = read-out: Antiviral Serum Shift RLuc CCM

SMILES	CC50 at 5 days [1]	EC50 (HIV-1 (IIIB))	EC50 (pLai RLuc reporter virus; [2])	EC50 (pLai RLuc reporter virus; [3])
O=C(NCc1cccc(Cl)c1F)c1c2n3c(c(O)c1=O)C(=O)N1CCCC[C@@]3(CC2)C1 [Compound 5, (6aR)—N-(3-chloro-2-fluorobenzyl)-11-hydroxy-1,10-dioxo-1,3,4,5,6,7,8,10-octahydro-2,6a-methano[1,4]diazonino[9,1,2-cd]indolizine-9-carboxamide]	4040 nM	2.24 nM	6.04 nM	0.278 nM
O=C1c2c(O)c(=O)c(-c3nnc(Cc4c(F)cc(F)cc4F)s3)c3n2C2(CCCCN1C2)CC3 (stereo not drawn) [Compound 7, 11-hydroxy-9-(5-(2,4,6-trifluorobenzyl)-1,3,4-thiadiazol-2-yl)-3,4,5,6,7,8-hexahydro-2,6a-methano[1,4]diazonino[9,1,2-cd]indolizine-1,10-dione]	3800 nM	3.8 nM	60.8 nM	0.997 nM
C[C@@]1(O)C[C@]23CCCCN(C2)C(=O)c2c(O)c(=O)c(C(=O)NCc4c(F)cc(F)cc4F)c1n23 [Compound 17, (6aR,8R)-8,11-dihydroxy-8-methyl-1,10-dioxo-N-(2,4,6-trifluorobenzyl)-1,3,4,5,6,7,8,10-octahydro-2,6a-methano[1,4]diazonino[9,1,2-cd]indolizine-9-carboxamide]	3170 nM	1.2 nM	1.1 nM	0.13 nM
O=C(NCc1c(F)cc(F)cc1F)c1c2n3c(c(O)c1=O)C(=O)N1CCCC[C@@]3(CC2CO)C1 (stereo partly drawn) [Compound 18, (6aR)-11-hydroxy-8-(hydroxymethyl)-1,10-dioxo-N-(2,4,6-trifluorobenzyl)-1,3,4,5,6,7,8,10-octahydro-2,6a-methano[1,4]diazonino[9,1,2-cd]indolizine-9-carboxamide]	25200 nM	10.7 nM	0.97 nM	0.87 nM
C[C@H]1C=CC[C@]23CCc4c(C(=O)NCc5c(F)cc(F)cc5F)c(=O)c(O)c(n42)C(=O)N1C3 [Compound 20, (3S,6aS)-11-hydroxy-3-methyl-1,10-dioxo-N-(2,4,6-trifluorobenzyl)-1,3,6,7,8,10-hexahydro-2,6a-methano[1,4]diazonino[9,1,2-cd]indolizine-9-carboxamide]	3340 nM	0.83 nM	16 nM	0.31 nM
CO[C@H]1CC[C@H](C)N2C[C@]13CCc1c(C(=O)NCc4c(F)cc(F)cc4F)c(=O)c(O)c(n13)C2=O [Compound 23-2, (3S,6S,6aR)-11-hydroxy-6-methoxy-3-methyl-1,10-dioxo-N-(2,4,6-trifluorobenzyl)-1,3,4,5,6,7,8,10-octahydro-2,6a-methano[1,4]diazonino[9,1,2-cd]indolizine-9-carboxamide]	14100 nM	2.5 nM	21 nM	0.46 nM
